Measured values reported in patent US6340670B1, “Acetal benzylmaltosides as inhibitors of smooth muscle cell proliferation” (American Home Products Corporation, priority 1998, dated 2002).
pIC50: −log10 of the molar value.

System: Porcine Smooth Muscle Cell
Assay: Effects of Compounds on Cell Proliferation Using 3H Thymidine Incorporation
Type: cell-based
Conditions: for pIC50: serum/growth factor stimulated cells, 24-36 h incubation, read-out: Porcine Smooth Muscle Cell Antiproliferation IC50; for Porcine Smooth Muscle Cell Antiproliferation, percent inhibition: @ 50 μM, control (100%) = maximally stimulated cells
Description: Effects of Compounds on Cell Proliferation Using ^3H Thymidine Incorporation
Human and porcine smooth muscle cells were tested in early passage (generally passage 3-7) at sub-confluent conditions. Cultures were grown in 16 mm (24 well) multi-well culture dishes in medium 199 supplemented with 10% fetal bovine serum and 2% antibiotic/antimycotic. At sub-confluence, the cells were placed in a defined serum free medium (AIM-V; Gibco) for 24-48 h prior to initiating the experimental protocol.
Compounds were added to each well at 50 fold dilution (20 μL/well) and the plates were incubated for 24-36 h at 37° C. in 5% CO2. Compounds were initially dissolved in 50% ethanol and serially diluted into media. Compounds were routinely evaluated at concentrations from 1 to 100 μM. As a control, grade II porcine intestinal mucosal heparin (sodium salt) was routinely evaluated in all cell preparations at concentrations from 0.1 to 100 μg/mL.
At the completion of the test procedure, plates were placed on ice, washed three times with ice cold phosphate buffered saline (PBS) and incubated in ice cold 10% trichloroacetic acid (TCA) got 30 min to remove acid soluble proteins. Solution was transferred to scintillation vials containing 0.4 N HCl (500 μL/vial to neutralize NaOH) and each well was rinsed two times with water (500 μL) for a total volume of 2 mL/vial.
Data was obtained, in triplicate, for both control and experimental samples. Control (100%) data was obtained from maximally stimulated cells, as the result of growth factor or serum stimulation. Experimental data was obtained from cells maximally stimulated with growth factor or serum and treated with compound. Data are expressed as an IC50 or percent inhibition in Table I below.

Row | Compound | pIC50 | Porcine Smooth Muscle Cell Antiproliferation, percent inhibition
1 | CC(=O)Nc1cc(CO[C@@H]2O[C@H](COc3ccccc3)[C@@H](O[C@H]3O[C@@H]4COC(c5ccccc5)O[C@H]4[C@H](O)[C@H]3O)[C@H](O)[C@H]2O)ccc1Cl (stereo partly drawn) [Example 60, N-{5-[(4′,6′-O-Benzylidene-6-O-phenyl-β-D-maltosyl)-oxy-methyl]-2-chloro-phenyl}-acetamide] | 7.42 | 
2 | O=C(Nc1cc(COC2OC(CO)C(OC3OC4COC(c5ccccc5)OC4C(O)C3O)C(O)C2O)ccc1Cl)c1cccnc1 [Example 61, (R)-N-[2-Chloro-5-[[[4-O-[4′,6′-O-(phenylmethylene)-α-D-glucopyranosyl]-β-D-glucopyranosyl]oxy]methyl]phenyl]-3-pyridinecarboxamide] | 4.86 | 
3 | O=C(Nc1cc(CO[C@@H]2O[C@H](COC(=O)c3ccccc3)[C@@H](O[C@H]3O[C@@H]4CO[C@@H](c5ccccc5)O[C@H]4[C@H](O)[C@H]3O)[C@H](O)[C@H]2O)ccc1Cl)c1cccnc1 [Example 62, (R)-N-[5-[[[6-O-Benzoyl-4-O-[4′,6′-O-(phenylmethylene)-α-D-glucopyranosyl]-β-D-glucopyranosyl]oxy]methyl]-2-chlorophenyl]-3-pyridinecarboxamide] | 7.64 | 
4 | O=C(Nc1cc(CO[C@@H]2O[C@H](CO)[C@@H](O[C@H]3O[C@@H]4COC(c5ccccc5)O[C@H]4[C@H](O)[C@H]3O)[C@H](O)[C@H]2O)ccc1Cl)c1ccco1 (stereo partly drawn) [Example 63, Furan-2-carboxylic acid {5-[(4′,6′-O-benzylidene-β-D-maltosyl)-oxy-methyl]-2-chloro-phenyl}-amide] | 5.11 | 
5 | O=C(OCC1OC(OCc2ccc(Cl)c(NC(=O)c3ccco3)c2)C(O)C(O)C1OC1OC2COC(c3ccccc3)OC2C(O)C1O)c1ccccc1 [Example 64, Furan-2-carboxylic acid {5-[(6-O-benzoyl-4′,6′-O-benzylidene-β-D-maltosyl)-oxy-methyl]-2-chloro-phenyl}-amide] | 7.30 | 
6 | C=CCCC(=O)Nc1cc(COC2OC(CO)C(OC3OC4COC(c5ccccc5)OC4C(O)C3O)C(O)C2O)ccc1Cl [Example 65, N-{2-Chloro-5-[(4′,6′-O-benzylidene-β-D-maltosyl)-oxy-methyl]-phenyl}-pent-4-enamide] | 4.75 | 
7 | C=CCCC(=O)Nc1cc(CO[C@@H]2O[C@H](COC(=O)c3ccccc3)[C@@H](O[C@H]3O[C@@H]4COC(c5ccccc5)O[C@H]4[C@H](O)[C@H]3O)[C@H](O)[C@H]2O)ccc1Cl (stereo partly drawn) [Example 66, N-{2-Chloro-5-[(6-O-benzoyl-4′,6′-O-benzilidene-β-D-maltosyl)-oxy-methyl]-phenyl}-pent-4-enamide] | 6.74 | 
8 | Nc1cc(COC2OC(COC(=O)c3ccccc3)C(OC3OC4COC(c5ccccc5)OC4C(O)C3O)C(O)C2O)ccc1Cl [Example 67, 5-(6-O-Benzoyl-4′,6′-O-benzylidene-β-D-maltosyl)-oxy-methyl-2-chloro-phenylamine] | 5.89 | 
9 | OCC1OC(OCc2ccc(Cl)cc2)C(O)C(O)C1OC1OC2COC(c3ccccc3)OC2C(O)C1O [Example 68, (4-Chloro)-benzyl-4′,6′-O-benzylidene-β-D-maltoside] | 4.60 | 
10 | O=C(OCC1OC(OCc2ccc(Cl)cc2)C(O)C(O)C1OC1OC2COC(c3ccccc3)OC2C(O)C1O)c1ccccc1 [Example 69, Benzoic acid 1-O-(4-chloro)-benzyl-4′,6′-O-benzylidene-6-deoxy-β-D-malto-6-yl ester] | 5.82 | 
11 | O=C(Nc1cc(COC2OC(CO)C(OC3OC4COC(c5ccccc5)OC4C(O)C3O)C(O)C2O)ccc1Cl)c1ccc(C(=O)c2ccccc2)cc1 [Example 70, 4-Benzoyl-N-{5-[(4′,6′-O-benzylidene-β-D-maltosyl)-oxy-methyl]-2-chloro-phenyl}-benzamide] | 5.00 | 
12 | O=C(Nc1cc(COC2OC(COC(=O)c3ccccc3)C(OC3OC4COC(c5ccccc5)OC4C(O)C3O)C(O)C2O)ccc1Cl)c1ccc(C(=O)c2ccccc2)cc1 [Example 71, 4-Benzoyl-N-{5-[(6-benzoyl-oxy-4′,6′-O-benzylidene-β-D-maltosyl)-oxy-methyl]-2-chloro-phenyl}-benzoic acid amide] | 7.30 | 
13 | O=C(Nc1cc(CO[C@@H]2O[C@H](COC(=O)c3ccccc3I)[C@@H](O[C@H]3O[C@@H]4COC(c5ccccc5)O[C@H]4[C@H](O)[C@H]3O)[C@H](O)[C@H]2O)ccc1Cl)c1ccc(C(=O)c2ccccc2)cc1 (stereo partly drawn) [Example 72, 4-Benzoyl-N-{5-[(4′,6′-O-benzylidene-6-O-(2-iodo)-benzoyl-β-D-maltosyl)-oxy-methyl]-2-chloro-phenyl}-benzamide] | 7.80 | 
14 | O=C(Nc1cc(COC2OC(COC(=O)c3cccc(I)c3)C(OC3OC4COC(c5ccccc5)OC4C(O)C3O)C(O)C2O)ccc1Cl)c1ccc(C(=O)c2ccccc2)cc1 [Example 73, 4-Benzoyl-N-{5-[(4′,6′-O-benzylidene-6-O-(3-iodo-benzoyl)-β-D-maltosyl)-oxy-methyl]-2-chloro-phenyl}-benzamide] | 6.88 | 
15 | O=C(Nc1cc(COC2OC(COC(=O)c3ccc(I)cc3)C(OC3OC4COC(c5ccccc5)OC4C(O)C3O)C(O)C2O)ccc1Cl)c1ccc(C(=O)c2ccccc2)cc1 [Example 74, 4-Benzoyl-N-{5-[(4′,6′-O-benzylidene-6-(4-iodo-benzoyl)-oxy-β-D-maltosyl)-oxy-methyl]-2-chloro-phenyl}-benzoic acid amide] | 5.91 | 
16 | CC(NC(=O)OCC1c2ccccc2-c2ccccc21)C(=O)Nc1cc(COC2OC(CO)C(OC3OC4COC(c5ccccc5)OC4C(O)C3O)C(O)C2O)ccc1Cl [Example 75, (1-{5-[(4′,6′-O-Benzylidene-β-D-maltosyl)-oxy-methyl]-2-chloro-phenyl-carbamoyl}ethyl)-carbamic acid 9H-fluoren-9ylmethyl ester] | 5.33 | 
17 | CC(NC(=O)OCC1c2ccccc2-c2ccccc21)C(=O)Nc1cc(COC2OC(COC(=O)c3ccccc3)C(OC3OC4COC(c5ccccc5)OC4C(O)C3O)C(O)C2O)ccc1Cl [Example 76, N-(9H-Fluoren-9ylmethoxycarbonyl)-N′-{5-[(6-O-benzoyl-4′,6′-O-benzylidene-β-D-maltosyl)-oxy-methyl]-2-chloro-phenyl}-L-alaninamide] | 6.81 | 
18 | C[C@H](N)C(=O)Nc1cc(CO[C@@H]2O[C@H](COC(=O)c3ccccc3)[C@@H](O[C@H]3O[C@@H]4COC(c5ccccc5)O[C@H]4[C@H](O)[C@H]3O)[C@H](O)[C@H]2O)ccc1Cl (stereo partly drawn) [Example 77, N′-{5-[(6-O-benzoyl-4′,6′-O-benzylidene-β-D-maltosyl)-oxy-methyl]-2-chloro-phenyl}-L-alaninamide] | 7.09 | 
19 | CC(=O)N(C)c1cc(CO[C@@H]2O[C@H](CO)[C@@H](O[C@H]3O[C@@H]4COC(c5ccccc5)O[C@H]4[C@H](O)[C@H]3O)[C@H](O)[C@H]2O)ccc1Cl (stereo partly drawn) [Example 78, N-{5-[(4′,6′-O-Benzylidene-β-D-maltosyl)-oxymethyl]-2-chloro-phenyl}-N-methyl-acetamide] |  | 8% @ 50
20 | CC(=O)N(C)c1cc(COC2OC(COC(=O)c3ccccc3)C(OC3OC4COC(c5ccccc5)OC4C(O)C3O)C(O)C2O)ccc1Cl [Example 79, N-{5-[(6-O-Benzoyl-4′,6′-O-benzylidene-β-D-maltosyl)-oxymethyl]-2-chloro-phenyl}-N-methyl-acetamide] | 5.63 | 
21 | COC(=O)Nc1cc(COC2OC(CO)C(OC3OC4COC(c5ccccc5)OC4C(O)C3O)C(O)C2O)ccc1Cl [Example 80, N-{5-[(4′,6′-O-Benzylidene-β-D-maltosyl)-oxy-methyl]-2-chloro-phenyl}-carbamic acid methyl ester] | 5.12 | 
22 | COC(=O)Nc1cc(COC2OC(COC(=O)c3ccccc3)C(OC3OC4COC(c5ccccc5)OC4C(O)C3O)C(O)C2O)ccc1Cl [Example 81, N-{5-[(6-O-Benzoyl-4′,6′-O-benzylidene-β-D-maltosyl)-oxy-methyl]-2-chloro-phenyl}-carbamic acid methyl ester] | 7.85 | 
23 | CS(=O)(=O)Nc1cc(COC2OC(CO)C(OC3OC4COC(c5ccccc5)OC4C(O)C3O)C(O)C2O)ccc1Cl [Example 83, N-{5-[(4′,6′-O-Benzylidene-β-D-maltosyl)-oxy-methyl]-2-chloro-phenyl}-methanesulfonamide] |  | 18% @ 50
24 | CC(=O)Nc1cc(COC2OC(COC(=O)c3ccccc3)C(OC3OC4COC(c5ccccc5)OC4C(O)C3O)C(O)C2O)ccc1C#N [Example 84, N-{5-[(6-O-Benzoyl-4′,6′-O-benzylidene-β-D-maltosyl)-oxy-methyl]-2-cyano-phenyl}-acetamide] | 6.60 | 
25 | CC(=O)Nc1cc(COC2OC(COC(=O)c3ccccc3)C(OC3OC4COC(c5ccccc5)OC4C(O)C3O)C(O)C2O)ccc1C [Example 85, N-{5-[(6-O-Benzoyl-4′,6′-O-benzylidene-β-D-maltosyl)-oxy-methyl]-2-methyl-phenyl}-acetamide] | 6.38 | 
26 | O=[N+]([O-])c1cc(CSC2OC(CO)C(OC3OC4COC(c5ccccc5)OC4C(O)C3O)C(O)C2O)ccc1Cl (centres unmarked) [Example 86, 6-[-6-(4-Chloro-3-nitro-benzylsulfanyl)-4,5-dihydroxy-2-hydroxymethyl-tetrahydro-pyran-3-yloxy]-2-phenyl-hexahydro-pyrano[3,2-d][1.3]dioxine-7.8-diol] | 4.79 | 
